PubChem BioAssay AID652069 (The Scripps Research Institute Molecular Screening Center, 2013)
Active and inactive are the calls of the source.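 Rule for the calls: active = growth ratio of SRC-3 knockout over parental cells of 1.2 or more, reached at 10 µM or lower; inactive = the rest.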

System: HeLa SRC-3 KO vs WT growth ratio, MTT, 5 d
Test: SRC-3 dependent HeLa growth inhibition selectivity, late-stage follow-up, selectivity assay for SRC-1/SRC-3 inhibitor project, cell-based, zinc finger nuclease knockout, MTT (AID 652069)
Settings: at 10 µM (top of the series)

SMILES	KO/WT growth ratio, higher = selective
Cc1cccc(NC(=O)c2cc(Cl)ccc2[N+](=O)[O-])c1	1.09 (inactive)
Cc1c(CC(=O)NCCCC(=O)O)c(=O)oc2cc3c(cc12)CCC(C)(C)O3	1.04 (inactive)
NC(=S)NN=C1CCSc2ccc(Cl)cc21	1.09 (inactive)
CC(=O)N1CCN(c2ncnc3ccccc23)CC1	0.988 (inactive)
CC(C)n1c(SCC(=O)Nc2nc3c(s2)CCCC3)nc2c1c(=O)n(C)c(=O)n2C	1.03 (inactive)
Cc1ccc(OCC(=O)c2cc(C)n(Cc3cccs3)c2C)c([N+](=O)[O-])n1	0.969 (inactive)
CCc1ccc(N=c2c([N+](=O)[O-])nn(-c3ccc4c(c3)OCCO4)n2O)cc1	0.982 (inactive)
O=C(COC(=O)c1ccc[nH]c1=O)Nc1ccc(N2CCCCC2)cc1	0.954 (inactive)
CCc1ccc(/C=C2\SC(=S)N(CCCC(=O)NCCCN3CCOCC3)C2=O)cc1	0.974 (inactive)
CCOc1ccc(/C=C2\SC(=S)N(CCCC(=O)NCCCN3CCOCC3)C2=O)cc1	1.03 (inactive)
Cc1c(/C(O)=C2/C(=O)C(=O)N(Cc3cccnc3)C2c2ccccn2)cnn1-c1ccccc1 (stereo unspecified)	0.966 (inactive)
COc1cc(C2c3cc4c(cc3C(OC3OC5COC(c6cccs6)OC5C(O)C3O)C3COC(=O)C23)OCO4)cc(OC)c1O (stereo unspecified)	1.2
S=C(c1ccc(-c2ccccc2)cc1)N1CCOCC1	0.918 (inactive)
NS(=O)(=O)c1ccc(Nc2nc(-c3cccnc3)cs2)cc1	0.928 (inactive)
CC(=O)/C(N=Nc1ccc2c(c1)OCCO2)=C(/C)O	1.02 (inactive)
CN(C)c1ccc(CNC(=O)CCNS(=O)(=O)c2cc(Br)cnc2N)cc1	1.04 (inactive)
O=C(Nc1nc(-c2ccccn2)cs1)c1cccc(S(=O)(=O)N2CCOCC2)c1	1.23
CCCCC(=O)Nc1cccn2ncnc12	0.954 (inactive)
O=C(CCCc1nc(-c2ccccc2Cl)no1)NC1CCCC1	1.06 (inactive)
O=[N+]([O-])c1nn(-c2ccc3c(c2)OCCO3)n(O)c1=Nc1ccccc1	0.918 (inactive)
CC(C)N(c1ccccc1)c1ccc(NC(=O)CCl)cc1	1.07 (inactive)
O=C(Nc1nc2ccccc2s1)C1c2ccccc2Oc2ccccc21	1.05 (inactive)
CCC(=O)N1CCN(c2ccnc3cc(Cl)ccc23)CC1	1.11 (inactive)
O=[N+]([O-])c1nn(-c2ccc3c(c2)OCCO3)n(O)c1=Nc1ccc(Cl)cc1	0.995 (inactive)
O=C(CCl)N1N=C(c2ccco2)CC1c1cccs1 (stereo unspecified)	2.05
CCOC(=O)C(=CNc1ccc(NC2=NCC(C)S2)cc1)C(=O)OCC (stereo unspecified)	1 (inactive)

SMILES	KO/WT growth ratio, higher = selective
O=C(CCl)NC(Cc1ccccc1)c1ccccc1 (stereo unspecified)	1.07 (inactive)
Cc1ccc(/C=C2\SC(=S)N(CCCC(=O)NC3CCCC3)C2=O)cc1	0.962 (inactive)
O=[N+]([O-])c1cccc2c1ccc1ncccc12	1.09 (inactive)
Cc1c(Cl)cccc1N=c1c([N+](=O)[O-])nn(-c2ccc3c(c2)OCCO3)n1O	1.03 (inactive)
COC(=O)c1c(C)n(-c2ccc(OC)cc2)c2ccc(O)cc12	1.01 (inactive)
COc1ccc(/C=C2/SC(=S)N(CCC(=O)O)C2=O)cc1	1.07 (inactive)
Cc1ccc(N=c2c([N+](=O)[O-])nn(-c3ccc4c(c3)OCCO4)n2O)cc1F	1.02 (inactive)
Cc1ccc(N=c2c([N+](=O)[O-])nn(-c3ccc4c(c3)OCCO4)n2O)c(Cl)c1	1.06 (inactive)
Cc1cc(C)cc(N=c2c([N+](=O)[O-])nn(-c3ccc4c(c3)OCCO4)n2O)c1	0.985 (inactive)
O=C1CCC2S/C(=C/Nc3ccc(C(F)(F)F)cc3)C(=O)N12 (stereo unspecified)	1.02 (inactive)
O=C(O)CN1C(=O)/C(=C\c2ccccc2OCc2ccc(Cl)cc2Cl)SC1=S	1.02 (inactive)
Cc1nn(CC(=O)N2CCN(c3cccc(C(F)(F)F)c3)CC2)c(=O)c2cccn12	1.09 (inactive)
Cc1cc(N=c2c([N+](=O)[O-])nn(-c3ccc4c(c3)OCCO4)n2O)ccc1Br	0.974 (inactive)
COc1cc2c(cc1OC)C(NC(=O)C(F)(F)F)CNC2=O (stereo unspecified)	1.47
COc1cc(N=c2c([N+](=O)[O-])nn(-c3ccc4c(c3)OCCO4)n2O)cc(OC)c1	1.09 (inactive)
S=C(Nc1ccccc1)Nc1ccc(OCc2ccc(Cl)cc2Cl)cc1	1.05 (inactive)
Cc1ccc(OCC(=O)c2cc(C)n(-c3ccccc3)c2C)c([N+](=O)[O-])n1	0.934 (inactive)
O=C(CCl)N1N=C(c2ccco2)CC1c1ccco1 (stereo unspecified)	1.42
NC(=O)c1sc2nc3c(c(-c4ccco4)c2c1N)CCC3	1.23
O=C(Nc1cccnc1)c1ccc(C(=O)Nc2cccnc2)cc1	1.07 (inactive)
c1ccc(-c2nnc(-c3ccccn3)nc2NC2CCCCC2)cc1	1.01 (inactive)
Cc1ccc(/C=C2/SC(=S)N(CCCC(=O)Nc3ccc(O)cc3)C2=O)cc1	1.11 (inactive)
Cn1nc(C(F)(F)F)c(C#N)c1N1CCN(c2ccc(F)cc2)CC1	0.976 (inactive)
O=C(NC(NC(=S)N1CCOCC1)C(Cl)(Cl)Cl)c1ccc(Cl)cc1 (stereo unspecified)	1.05 (inactive)
Cc1cc(/C=C2\Cc3ccccc3C2=O)c(C)n1-c1ccccc1	1.01 (inactive)
